Among the data in ChEMBL document CHEMBL1159152, “A novel bromopyrrole alkaloid from the sponge Agelas longissima with antiserotonergic activity” (Bioorg Med Chem Lett, 1995) are pA2 and IC50 values, retold here.

Assay [1] addresses Serotonin (5-HT) receptor. In words: Affinity against 5-hydroxytryptamine receptor was determined. It counts as protein assay, Rattus norvegicus.
For another assay, the species on record is Rattus norvegicus. Kind of assay: In vitro antiserotonergic activity on rat stomach fundus strip. In kind it is functional.

For `O=C([O-])c1ccc[n+](CCOC(=O)c2cc(Br)c[nH]2)c1`, the pA2 in assay [1] came out at 6.2. Besides, 80 µM corresponded to half-maximal inhibition in the assay filed under Rattus norvegicus (IC50).

A word on the pA2: it is the negative logarithm of the molar antagonist concentration that doubles the agonist concentration needed for the same response. Low readings indicate lower antagonist potency, high ones higher antagonist potency. For orientation: IC50 means the concentration that inhibits the measured activity by half. High values mean a need for much substance, low ones inhibition by little substance.
